In this assay the target is T1, Sterol O-acyltransferase 1 (Rattus norvegicus, UniProt O70536).
T1 sequence (O70536 whole entry): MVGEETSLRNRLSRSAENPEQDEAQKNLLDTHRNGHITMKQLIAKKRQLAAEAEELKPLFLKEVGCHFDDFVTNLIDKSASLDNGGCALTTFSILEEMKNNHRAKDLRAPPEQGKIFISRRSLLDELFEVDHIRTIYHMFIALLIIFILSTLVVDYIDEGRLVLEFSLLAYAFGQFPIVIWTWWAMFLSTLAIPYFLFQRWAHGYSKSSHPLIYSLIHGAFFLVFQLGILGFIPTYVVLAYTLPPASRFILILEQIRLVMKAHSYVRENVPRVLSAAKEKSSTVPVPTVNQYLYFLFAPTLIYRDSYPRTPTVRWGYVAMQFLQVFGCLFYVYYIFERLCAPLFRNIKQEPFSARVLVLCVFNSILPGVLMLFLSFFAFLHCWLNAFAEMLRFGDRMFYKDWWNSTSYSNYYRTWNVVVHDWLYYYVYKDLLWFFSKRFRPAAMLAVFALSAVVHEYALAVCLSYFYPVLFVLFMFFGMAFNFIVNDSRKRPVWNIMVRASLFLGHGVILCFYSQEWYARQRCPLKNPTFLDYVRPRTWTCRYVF
Briefly: In vitro inhibitory activity of compound was measured on rat liver Acyl coenzyme A:cholesterol acyltransferase.

These results are taken from ChEMBL document CHEMBL1131709, “Acyl-CoA: cholesterol acyltransferase inhibitory activity of ginseng sapogenins, produced from the ginseng saponins” (Bioorg Med Chem Lett, 1999).

In general, IC50 refers to the midpoint of a concentration-inhibition curve. Read a low IC50 as higher potency. `CC1(C)CCC[C@@](C)(C2CC[C@]3(C)C2[C@H](O)CC2[C@@]4(C)CC[C@H](O)C(C)(C)C4[C@@H](O)C[C@]23C)O1` (stereo partly drawn): half-maximal inhibition (IC50) required 28 µM.

In turn, `CC1(C)CCC[C@](C)(C2CC[C@]3(C)C2[C@H](O)CC2[C@@]4(C)CC[C@H](O)C(C)(C)C4[C@@H](O)C[C@]23C)O1` (stereo partly drawn) yielded an IC50 of 12 µM.

Take `CC1(C)CCC[C@@](C)(C2CC[C@]3(C)C2[C@H](O)CC2[C@@]4(C)CC[C@H](O)C(C)(C)C4CC[C@]23C)O1` (stereo partly drawn): the IC50 worked out at 25 µM.

The compound `CC(C)=CCC[C@@](C)(O)[C@H]1CC[C@]2(C)[C@@H]1[C@H](O)C[C@@H]1[C@@]3(C)CC[C@H](O)C(C)(C)[C@@H]3CC[C@]12C` displayed an IC50 of 10 µM.

`CC(C)=CCC[C@](C)(O)[C@H]1CC[C@]2(C)[C@@H]1[C@H](O)C[C@@H]1[C@@]3(C)CC[C@H](O)C(C)(C)[C@@H]3CC[C@]12C` gave a concentration for half-maximal inhibition (IC50) of 30 µM.

`CC1(C)CCC[C@](C)(C2CC[C@]3(C)C2[C@H](O)CC2[C@@]4(C)CC[C@H](O)C(C)(C)C4CC[C@]23C)O1` (stereo partly drawn) gave an IC50 of 55 µM.

The compound `CC(C)=CCC[C@@](C)(O)[C@H]1CC[C@]2(C)C1[C@H](O)C[C@@H]1[C@@]3(C)CC[C@H](O)C(C)(C)[C@@H]3[C@@H](O)C[C@]12C` (stereo partly drawn) came in with an IC50 of 6 µM.

Compound `CC(C)=CCC[C@](C)(O)C1CC[C@]2(C)C1[C@H](O)CC1[C@@]3(C)CC[C@H](O)C(C)(C)C3[C@@H](O)C[C@]12C` (stereo partly drawn) registered an IC50 of 24 µM.
